Residues, ends and D or L forms follow the SMILES beside them. *: point of attachment. Cbz = O=C(OCc1ccccc1)*
Legend:
[1] = tested on: DLD-1; assay: Antiproliferative activity against human DLD1 cells after 72 hrs by sulforhodamine B assay; type: functional, cell-based; settings: DLD-1, 72 h
[2] = tested on: U-87 MG; assay: Antiproliferative activity against human U87 cells after 72 hrs by sulforhodamine B assay; type: functional, cell-based, U-87MG ATCC
[3] = Half life in human; type: ADME
[4] = Cytotoxicity against human RPMI8226/S cells after 4 hrs by MTT assay; type: functional, cell-based
[5] = Cytotoxicity against […] cells after 4 hrs by MTT assay; type: functional, cell-based
[6] = Selectivity ratio of IC50 for […] cells to IC50 for human RPMI8226/S cells; type: functional
[7] = tested on: P388; assay: Antitumor activity against mouse P388 cells implanted in ip dosed B6D2F1 mouse assessed as T/C value administered for 4 days; type: functional
[8] = tested on: HeLa; assay: Antiproliferative activity against human HeLa cells after 72 hrs by sulforhodamine B assay; type: functional, cell-based
[9] = tested on: Bel-7402; assay: Antiproliferative activity against human Bel7402 cells after 72 hrs by sulforhodamine B assay; type: functional, cell-based; settings: Bel-7402, 72 h
[10] = tested on: Proteasome; assay: Inhibition of proteasome in human K562 cells assessed as half life of etoposide-induced Topoisomerase 2alpha-DNA complexes at 50 uM incubated for 2 hrs followed by etoposide washout and measured up to 120 mins by TARDIS assay (reference value: 0.5 hrs); type: subcellular
[11] = tested on: Proteasome; assay: Inhibition of proteasome in human K562 cells assessed as half life of mitoxantrone-induced Topoisomerase 2alpha-DNA complexes by measuring half life of complex at 50 uM incubated for 2 hrs followed by mitoxantrone washout and measured up to […] by TARDIS assay (reference value: 10 hrs); type: subcellular

Structure (SMILES) | IC50 [4] [µM] | IC50 [5] [µM] | Ratio IC50 [6] | T/C [7] [%] | further results
CCCCC(C#CC(=O)OC)O/C=C/C(=O)OC (stereo not given) |  |  |  |  | IC50 [1]: 0.85 µM; IC50 [2]: 4.9 µM
COc1cccc2c1C(=O)c1c(O)c3c(c(O)c1C2=O)C[C@@](O)(C(=O)CO)C[C@@H]3O[C@H]1C[C@H](N)[C@H](O)[C@H](C)O1 [DOXORUBICIN] | 0.037 | 0.32 | 8.7 |  | half-life [3]: 0.0667 h
CC[C@@]1(O)C(=O)OCc2c1cc1n(c2=O)Cc2cc3ccccc3nc2-1 [CAMPTOTHECIN] |  |  |  |  | half-life [3]: 1.18 to 1.5 h
N[C@H]1CCN(c2c(F)cc3c(=O)c(C(=O)O)cn4c3c2Oc2c-4ccc3c2ccc2ccccc23)C1 | 0.69 | 2.8 | 4 |  | 
N[C@@H]1CCN(c2c(F)cc3c(=O)c(C(=O)O)cn4c3c2Oc2c-4ccc3c2ccc2ccccc23)C1 | 0.32 | 0.5 | 1.6 |  | 
Cc1cnc(NCCCN(C)C)c2c1[nH]c1ccc3ccccc3c12 |  |  |  | 150 | 
COc1ccc2c(ccc3c2c2c(NCCCN(C)C)ncc(C)c2n3C)c1 |  |  |  | 150 | 
COc1ccc(O)c(C(=O)c2cnc3[nH]c4ccccc4c3c2)c1 |  |  |  |  | IC50 [8]: 0.06 µM; IC50 [9]: 0.83 µM
Cc1cnc(NCCCN(C)C)c2c1[nH]c1ccc3cc(O)ccc3c12 [INTOPLICINE] |  |  |  | 270 | 
CC(C)C[C@@H](C=O)NC(=O)[C@H](CC(C)C)NC(=O)[C@H](CC(C)C)NC(=O)OCc1ccccc1 (Cbz-Leu-Leu-Leu-aldehyde) |  |  |  |  | T1/2 [10]: > 2 h; T1/2 [11]: > 24 h

Reference: ChEMBL document CHEMBL4376825, “Dual Inhibitors of Human DNA Topoisomerase II and Other Cancer-Related Targets” (J Med Chem, 2020)
